# ChEMBL document CHEMBL2021794, “Synthesis, σ₁, σ₂-receptors binding affinity and antiproliferative action of new C1-substituted adamantanes” (Bioorg Med Chem, 2012)
# pIC50: −log10 of the molar value.
# Key:
# MIA PaCa-2 [1] = test: Antitumor activity against human MIAPaCa2 cells xenografted in SCID mouse assessed as reduction in tumor volume at 70 mg/kg, ip twice a week; details: MIA PaCa-2, ip, read-out: INH
# MIA PaCa-2 [2] = test: Antitumor activity against human MIAPaCa2 cells xenografted in SCID mouse assessed as tumor weight at 70 mg/kg, ip twice a week (reference value: 1225 +/- 308 mg); format: functional; details: route intraperitoneal
# BXPC-3 [3] = test: Growth inhibition of human BxPC3 cells after 48 hrs by SRB assay; format: functional; details: BXPC-3, 48 h
# MIA PaCa-2 [4] = test: Growth inhibition of human MIAPaCa2 cells after 48 hrs by SRB assay; format: functional; details: MIA PaCa-2, 48 h; for CC50: read-out: LC50 (the source's name)
# HCT-116 = test: Growth inhibition of human HCT116 cells after 48 hrs by SRB assay; format: functional; details: HCT-116, 48 h; for CC50: read-out: LC50 (the source's name)
# DU-145 = test: Growth inhibition of human DU145 cells after 48 hrs by SRB assay; format: functional; details: DU-145, 48 h; for CC50: read-out: LC50 (the source's name)
# MCF7 = test: Growth inhibition of human MCF7 cells after 48 hrs by SRB assay; format: functional; details: MCF7, 48 h; for CC50: read-out: LC50 (the source's name)
# U-251 = test: Growth inhibition of human U251 cells after 48 hrs by SRB assay; format: functional; details: U-251, 48 h; for CC50: read-out: LC50 (the source's name)
# BXPC-3 [5] = test: Antitumor activity against human BxPC3 cells xenografted in SCID mouse assessed as tumor weight at 17 mg/kg, ip twice a week (reference value: 723 +/- 45 mg); format: functional; details: route intraperitoneal
# HL-60(TB) = test: Growth inhibition of human HL-60(TB) cells after 48 hrs by SRB assay; format: functional; details: HL-60, 48 h
# NCI-H69 = test: Growth inhibition of human NCI-H69 cells after 48 hrs by SRB assay; format: functional; details: NCI-H69, 48 h; for CC50: read-out: LC50 (the source's name)
# NCI-H460 = test: Growth inhibition of human NCI-H460 cells after 48 hrs by SRB assay; format: functional; details: NCI-H460, 48 h
# DMS-114 = test: Growth inhibition of human DMS114 cells after 48 hrs by SRB assay; format: functional; details: DMS-114, 48 h; for CC50: read-out: LC50 (the source's name)
# H69AR = test: Growth inhibition of human H69AR cells after 48 hrs by SRB assay; format: functional; details: for CC50: read-out: LC50 (the source's name)
# SF-295 = test: Growth inhibition of human SF295 cells after 48 hrs by SRB assay; format: functional; details: SF-295, 48 h; for CC50: read-out: LC50 (the source's name)
# PC-3 = test: Growth inhibition of human PC3 cells after 48 hrs by SRB assay; format: functional; details: PC-3, 48 h; for CC50: read-out: LC50 (the source's name)
# BXPC-3 [6] = test: Antitumor activity against human BxPC3 cells xenografted in SCID mouse assessed as reduction in tumor volume at 17 mg/kg, ip twice a week; format: functional; details: BXPC-3, ip, route intraperitoneal
# HUVEC = test: (§1) Growth inhibition of HUVEC cells after 48 hrs by SRB assay; format: cell-based; details: human, huvec, 48 h
# [7] = as §1; format: cell-based; details: human, HUVEC cells
# IGROV-1 = test: Growth inhibition of human IGROV1 cells after 48 hrs by SRB assay; format: functional; details: IGROV-1, 48 h; for CC50: read-out: LC50 (the source's name)
# HCT-15 = test: Growth inhibition of human HCT15 cells after 48 hrs by SRB assay; format: functional; details: HCT-15, 48 h
# OVCAR-5 = test: Growth inhibition of human OVCAR5 cells after 48 hrs by SRB assay; format: functional; details: OVCAR-5, 48 h; for CC50: read-out: LC50 (the source's name)
# SK-HEP1 = test: Growth inhibition of human SKHEP1 cells after 48 hrs by SRB assay; format: functional; details: SK-HEP1, 48 h; for CC50: read-out: LC50 (the source's name)
# [8] = Growth inhibition of human MSC cells after 48 hrs by SRB assay; format: cell-based; details: for GI50 at 48 h: MSC cells; for LC50 / TGI: msc, 48 h
# LOX IMVI = test: Growth inhibition of human LOXIMVI cells after 48 hrs by SRB assay; format: functional
# [9] = Selectivity ratio of IC50 for human sigma-1 receptor to IC50 for rat sigma-2 receptor
# [10] = (§2) Growth inhibition of NHDF cells after 48 hrs by SRB assay; format: cell-based; details: human, NHDF cells
# NHDF = test: as §2; format: cell-based; details: human, nhdf, 48 h
# [11] = target: Sigma non-opioid intracellular receptor 1 (Homo sapiens, UniProt Q99720); test: Displacement of [3H](+)pentazocine from sigma-1 receptor expressed in human Jurkat cell membranes after 2 hrs by liquid scintillation spectroscopy
# [12] = Displacement of [3H]BTX-B from Na+ channel site 2 after 60 mins by liquid scintillation spectroscopy
# [13] = Displacement of [3H](+)1-DTG from sigma-2 receptor expressed in rat cerebral cortex membranes after 2 hrs by liquid scintillation spectroscopy; format: cell membranes, Membrane
# SF-268 = test: Growth inhibition of human SF268 cells after 48 hrs by SRB assay; format: functional; details: SF-268, 48 h
# Chain of Sigma non-opioid intracellular receptor 1 (Q99720 whole entry): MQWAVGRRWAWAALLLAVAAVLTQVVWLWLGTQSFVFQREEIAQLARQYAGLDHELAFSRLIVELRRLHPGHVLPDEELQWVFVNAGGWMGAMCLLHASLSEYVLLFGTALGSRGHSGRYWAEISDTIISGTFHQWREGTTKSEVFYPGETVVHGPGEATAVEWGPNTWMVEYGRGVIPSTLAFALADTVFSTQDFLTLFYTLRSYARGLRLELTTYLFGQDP
smiles,measurement,setting,value
Nc1ccn([C@@H]2O[C@H](CO)[C@@H](O)C2(F)F)c(=O)n1 [GEMCITABINE],inhibition in vivo at 70 mg/kg,MIA PaCa-2 [1],56.2%
same,Activity,MIA PaCa-2 [2],537 mg
same,GI50,BXPC-3 [3],3.64 µM
same,TGI,BXPC-3 [3],9.05 µM
same,GI50,MIA PaCa-2 [4],35.8 µM
same,TGI,MIA PaCa-2 [4],100 µM
same,CC50,MIA PaCa-2 [4],100 µM
O=c1[nH]cc(F)c(=O)[nH]1 [FLUOROURACIL],GI50,HCT-116,9.9 µM
same,TGI,HCT-116,100 µM
same,CC50,HCT-116,100 µM
same,GI50,DU-145,9.37 µM
same,TGI,DU-145,100 µM
same,CC50,DU-145,100 µM
same,GI50,MCF7,9.9 µM
same,TGI,MCF7,100 µM
same,CC50,MCF7,100 µM
same,GI50,U-251,82 µM
same,TGI,U-251,100 µM
same,CC50,U-251,100 µM
same,Activity,BXPC-3 [5],700%
same,GI50,HL-60(TB),100 µM
same,TGI,HL-60(TB),100 µM
same,GI50,NCI-H69,100 µM
same,TGI,NCI-H69,100 µM
same,CC50,NCI-H69,100 µM
same,GI50,NCI-H460,6.5 µM
same,TGI,NCI-H460,100 µM
same,GI50,DMS-114,100 µM
same,TGI,DMS-114,100 µM
same,CC50,DMS-114,100 µM
same,GI50,BXPC-3 [3],8.2 µM
same,TGI,BXPC-3 [3],100 µM
same,GI50,H69AR,100 µM
same,TGI,H69AR,100 µM
same,CC50,H69AR,100 µM
same,GI50,SF-295,76 µM
same,TGI,SF-295,100 µM
same,CC50,SF-295,100 µM
same,GI50,PC-3,21 µM
same,TGI,PC-3,100 µM
same,CC50,PC-3,100 µM
same,GI50,MIA PaCa-2 [4],30 µM
same,TGI,MIA PaCa-2 [4],100 µM
same,CC50,MIA PaCa-2 [4],100 µM
same,inhibition in vivo at 17 mg/kg,BXPC-3 [6],3.25%
same,LC50,HUVEC,100 µM
same,TGI,HUVEC,100 µM
same,GI50 at 48 h,[7],9.72 µM
same,GI50,IGROV-1,9.1 µM
same,TGI,IGROV-1,100 µM
same,CC50,IGROV-1,100 µM
same,GI50,HCT-15,21 µM
same,TGI,HCT-15,100 µM
same,GI50,OVCAR-5,20 µM
same,TGI,OVCAR-5,100 µM
same,CC50,OVCAR-5,100 µM
same,GI50,SK-HEP1,6.3 µM
same,TGI,SK-HEP1,100 µM
same,CC50,SK-HEP1,100 µM
same,GI50 at 48 h,[8],8.92 µM
same,LC50,[8],100 µM
same,TGI,[8],86.06 µM
CCN1CCN(c2ccc(C(c3ccccc3)C34CC5CC(CC(C5)C3)C4)cc2)CC1 (stereo not drawn),GI50,HCT-116,6.39 µM
same,TGI,HCT-116,32.9 µM
same,CC50,HCT-116,100 µM
same,GI50,DU-145,17.8 µM
same,TGI,DU-145,58.7 µM
same,CC50,DU-145,99.6 µM
same,GI50,MCF7,9.23 µM
same,TGI,MCF7,59 µM
same,CC50,MCF7,100 µM
same,GI50,LOX IMVI,3.79 µM
same,LC50 (concentration killing 50% of cells),LOX IMVI,8.4 µM
same,TGI,LOX IMVI,6.09 µM
same,GI50,U-251,4.23 µM
same,TGI,U-251,7.42 µM
same,CC50,U-251,12 µM
same,Ratio IC50,[9],1.4
same,GI50 at 48 h,[10],7.43 µM
same,LC50,NHDF,100 µM
same,TGI,NHDF,100 µM
same,GI50,HL-60(TB),6.39 µM
same,LC50,HL-60(TB),100 µM
same,TGI,HL-60(TB),100 µM
same,GI50,NCI-H69,5.54 µM
same,CC50,NCI-H69,100 µM
same,GI50,NCI-H460,5.77 µM
same,LC50 (concentration killing 50% of cells),NCI-H460,100 µM
same,TGI,NCI-H460,9.44 µM
same,pIC50,[11],8.54
same,pIC50,[12],6.15
same,GI50,DMS-114,6.05 µM
same,TGI,DMS-114,11.6 µM
same,CC50,DMS-114,20.3 µM
same,GI50,BXPC-3 [3],7.07 µM
same,LC50,BXPC-3 [3],> 100 µM
same,TGI,BXPC-3 [3],41.6 µM
same,GI50,H69AR,4.75 µM
same,TGI,H69AR,7.82 µM
same,CC50,H69AR,100 µM
same,pIC50,[13],8.40
same,GI50,SF-295,19.6 µM
same,TGI,SF-295,50.9 µM
same,CC50,SF-295,82.2 µM
same,GI50,PC-3,9.01 µM
same,TGI,PC-3,65.6 µM
same,CC50,PC-3,100 µM
same,LC50,HUVEC,9.88 µM
same,TGI,HUVEC,6.72 µM
same,GI50 at 48 h,[7],3.56 µM
same,GI50,IGROV-1,8 µM
same,TGI,IGROV-1,49 µM
same,CC50,IGROV-1,100 µM
same,GI50,HCT-15,6.63 µM
same,LC50,HCT-15,100 µM
same,TGI,HCT-15,41.2 µM
same,GI50,OVCAR-5,6 µM
same,TGI,OVCAR-5,24.5 µM
same,CC50,OVCAR-5,77.8 µM
same,GI50,SF-268,8.24 µM
same,TGI,SF-268,53.5 µM
same,CC50,SF-268; read-out: LC50 (the source's name),100 µM
same,GI50,SK-HEP1,3.98 µM
same,TGI,SK-HEP1,7.24 µM
same,CC50,SK-HEP1,29.8 µM
same,GI50 at 48 h,[8],19.5 µM
same,LC50,[8],100 µM
same,TGI,[8],72 µM
